Results published in the NIST ThermoML archive (doi:10.1016/j.jct.2018.12.008).
± gives the expanded uncertainty stated by the source.

Experiments:
[1] = mn = molality of the nth substance listed, in mol/kg; conditions: 100 kPa, Liquid; for viscosity: Falling or rolling sphere viscometry; for electrical conductivity: Frequency=0.003 MHz, Alternating current cell with electrodes; for mass density: Vibrating tube method
[2] = 100 kPa, Liquid, Falling or rolling sphere viscometry

CCCCCCCC[n+]1ccc(C)cc1.[Br-] [1-octyl-4-methylpyridinium bromide] + O
[1]
Conditions	electrical conductivity, 288.15 K [S/m]	electrical conductivity, 298.15 K [S/m]	electrical conductivity, 308.15 K [S/m]	mass density, 288.15 K [kg/m3]	mass density, 298.15 K [kg/m3]	mass density, 308.15 K [kg/m3]	viscosity, 288.15 K [mPa·s]	viscosity, 298.15 K [mPa·s]	viscosity, 308.15 K [mPa·s]
m1 = 0.0011	–	–	–	999.141 ± 0.6	997.088 ± 0.6	994.07 ± 0.6	1.134 ± 0.022	0.8878 ± 0.021	0.7215 ± 0.021
m1 = 0.0018	–	–	–	999.186 ± 0.6	997.125 ± 0.6	994.101 ± 0.6	1.135 ± 0.022	0.8882 ± 0.021	0.7225 ± 0.021
m1 = 0.0021	0.0176 ± 0.0016	0.0219 ± 0.002	0.0265 ± 0.0024	999.196 ± 0.6	997.135 ± 0.64	994.115 ± 0.6	1.136 ± 0.022	0.891 ± 0.029	0.727 ± 0.021
m1 = 0.0036	–	–	–	999.266 ± 0.6	997.199 ± 0.6	994.174 ± 0.6	1.136 ± 0.022	0.8892 ± 0.021	0.7255 ± 0.021
m1 = 0.0043	0.0344 ± 0.0015	0.042 ± 0.0019	0.0517 ± 0.0023	999.3 ± 0.6	997.233 ± 0.6	994.42 ± 0.6	1.138 ± 0.022	0.892 ± 0.021	0.731 ± 0.021
m1 = 0.0065	0.051 ± 0.0016	0.0634 ± 0.0021	0.076 ± 0.0023	999.402 ± 0.6	997.329 ± 0.6	994.283 ± 0.6	1.139 ± 0.022	0.893 ± 0.021	0.734 ± 0.021

O [water]
[2]
Conditions	viscosity [mPa·s]
288.15 K	1.133 ± 0.022
298.15 K	0.89 ± 0.021
308.15 K	0.719 ± 0.021

O [water] + CCCCCCCC[n+]1ccc(C)cc1.[Br-]
[1], m2 = 0
Conditions	electrical conductivity [S/m]	viscosity [mPa·s]
288.15 K	0.000101	1.133 ± 0.022
298.15 K	0.00015	0.89 ± 0.022
308.15 K	0.000216	0.719 ± 0.021

O [water] + CCCCCC[n+]1ccc(C)cc1.[Br-]
[1], m2 = 0
Conditions	electrical conductivity [S/m]	viscosity [mPa·s]
288.15 K	0.000101	1.133 ± 0.022
298.15 K	0.00015	0.89 ± 0.022
308.15 K	0.000216	0.719 ± 0.021

O [water] + CCCC[n+]1ccc(C)cc1.[Br-]
[1], m2 = 0
Conditions	electrical conductivity [S/m]	viscosity [mPa·s]
288.15 K	0.000101	1.133 ± 0.022
298.15 K	0.00015	0.89 ± 0.021
308.15 K	0.000216	0.719 ± 0.021
